Laboratory results taken from PMC5392334, “Discovery and characterization of a novel irreversible EGFR mutants selective and potent kinase inhibitor CHMFL-EGFR-26 with a distinct binding mode” (Oncotarget, 2017).

How the values were obtained:
Experiment in all cases: KinomeScan
Assay type in all cases: binding
Settings in all cases: read-out: % control
[1] = biological target: T1, ABL1(H396P)-phosphorylated (Homo sapiens, UniProt P00519, H396P)
T1 construct: purchased DiscoveRx KINOMEscan

ANKK1 = biological target: T2, ANKK1 (Homo sapiens, UniProt Q8NFD2)
T2 construct: purchased DiscoveRx KINOMEscan

BRAF = biological target: T3, BRAF (Homo sapiens, UniProt P15056)
T3 construct: purchased DiscoveRx KINOMEscan

CDK4-cyclinD3 = biological target: T4, CDK4-cyclinD3 (Homo sapiens, UniProt P11802)
T4 construct: purchased DiscoveRx KINOMEscan

JNK2 = biological target: T5, JNK2 (Homo sapiens, UniProt P45984)
T5 construct: purchased DiscoveRx KINOMEscan

LOK = biological target: T6, LOK (Homo sapiens, UniProt O94804)
T6 construct: purchased DiscoveRx KINOMEscan

MAP4K4 = biological target: T7, MAP4K4 (Homo sapiens, UniProt O95819)
T7 construct: purchased DiscoveRx KINOMEscan

NEK6 = biological target: T8, NEK6 (Homo sapiens, UniProt Q9HC98)
T8 construct: purchased DiscoveRx KINOMEscan

PAK1 = biological target: T9, PAK1 (Homo sapiens, UniProt Q13153)
T9 construct: purchased DiscoveRx KINOMEscan

PIK3C2B = biological target: T10, PIK3C2B (Homo sapiens, UniProt O00750)
T10 construct: purchased DiscoveRx KINOMEscan

PRKCH = biological target: T11, PRKCH (Homo sapiens, UniProt P24723)
T11 construct: purchased DiscoveRx KINOMEscan

SLK = biological target: T12, SLK (Homo sapiens, UniProt Q9H2G2)
T12 construct: purchased DiscoveRx KINOMEscan

TESK1 = biological target: T13, TESK1 (Homo sapiens, UniProt Q15569)
T13 construct: purchased DiscoveRx KINOMEscan
T13 sequence (Q15569 whole entry): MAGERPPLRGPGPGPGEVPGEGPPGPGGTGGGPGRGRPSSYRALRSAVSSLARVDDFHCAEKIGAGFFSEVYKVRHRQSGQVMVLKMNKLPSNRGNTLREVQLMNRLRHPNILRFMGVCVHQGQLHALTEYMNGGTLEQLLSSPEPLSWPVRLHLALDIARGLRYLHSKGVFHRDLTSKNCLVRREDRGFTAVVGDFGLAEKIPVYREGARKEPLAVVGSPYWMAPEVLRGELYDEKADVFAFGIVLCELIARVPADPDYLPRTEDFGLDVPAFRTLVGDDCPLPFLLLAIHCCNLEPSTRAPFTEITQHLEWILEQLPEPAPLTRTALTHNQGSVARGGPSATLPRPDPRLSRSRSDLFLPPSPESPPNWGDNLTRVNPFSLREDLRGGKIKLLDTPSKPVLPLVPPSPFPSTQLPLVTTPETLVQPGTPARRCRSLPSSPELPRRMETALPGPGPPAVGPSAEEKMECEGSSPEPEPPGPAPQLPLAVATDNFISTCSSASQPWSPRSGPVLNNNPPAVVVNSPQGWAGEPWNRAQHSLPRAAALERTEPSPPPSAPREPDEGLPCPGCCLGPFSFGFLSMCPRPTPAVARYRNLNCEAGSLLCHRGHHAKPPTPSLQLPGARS

T12 sequence (Q9H2G2 whole entry): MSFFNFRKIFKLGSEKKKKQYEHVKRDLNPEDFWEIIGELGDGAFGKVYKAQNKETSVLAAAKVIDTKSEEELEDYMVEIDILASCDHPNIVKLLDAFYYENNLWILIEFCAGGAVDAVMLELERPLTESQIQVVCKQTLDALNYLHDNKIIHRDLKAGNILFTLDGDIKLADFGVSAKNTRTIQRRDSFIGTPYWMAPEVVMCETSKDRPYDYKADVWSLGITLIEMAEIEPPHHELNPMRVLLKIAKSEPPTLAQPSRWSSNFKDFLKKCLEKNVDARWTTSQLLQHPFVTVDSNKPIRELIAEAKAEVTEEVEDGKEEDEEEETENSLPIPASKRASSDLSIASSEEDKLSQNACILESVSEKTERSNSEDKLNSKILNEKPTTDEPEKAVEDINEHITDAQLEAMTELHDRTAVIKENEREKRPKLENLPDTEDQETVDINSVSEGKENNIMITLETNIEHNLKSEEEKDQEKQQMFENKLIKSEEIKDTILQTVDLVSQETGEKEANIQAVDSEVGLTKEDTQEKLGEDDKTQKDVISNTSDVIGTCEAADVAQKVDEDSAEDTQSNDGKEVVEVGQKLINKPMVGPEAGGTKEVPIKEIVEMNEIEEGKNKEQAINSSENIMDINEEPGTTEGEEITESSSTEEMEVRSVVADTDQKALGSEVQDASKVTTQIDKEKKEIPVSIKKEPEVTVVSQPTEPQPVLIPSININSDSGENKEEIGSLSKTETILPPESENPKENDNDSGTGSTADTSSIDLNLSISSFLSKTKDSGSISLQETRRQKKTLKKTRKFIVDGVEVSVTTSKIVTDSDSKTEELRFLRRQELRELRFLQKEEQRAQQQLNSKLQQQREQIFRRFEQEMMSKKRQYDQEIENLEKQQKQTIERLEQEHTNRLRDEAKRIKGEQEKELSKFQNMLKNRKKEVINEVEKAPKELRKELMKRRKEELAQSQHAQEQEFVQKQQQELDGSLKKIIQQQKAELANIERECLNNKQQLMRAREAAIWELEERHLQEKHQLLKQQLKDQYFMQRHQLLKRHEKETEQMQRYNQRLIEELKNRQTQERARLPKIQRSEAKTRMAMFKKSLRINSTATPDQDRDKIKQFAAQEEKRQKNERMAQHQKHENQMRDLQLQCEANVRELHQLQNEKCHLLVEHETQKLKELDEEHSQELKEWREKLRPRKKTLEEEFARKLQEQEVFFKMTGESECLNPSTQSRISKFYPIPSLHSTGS
T7 sequence (O95819 whole entry): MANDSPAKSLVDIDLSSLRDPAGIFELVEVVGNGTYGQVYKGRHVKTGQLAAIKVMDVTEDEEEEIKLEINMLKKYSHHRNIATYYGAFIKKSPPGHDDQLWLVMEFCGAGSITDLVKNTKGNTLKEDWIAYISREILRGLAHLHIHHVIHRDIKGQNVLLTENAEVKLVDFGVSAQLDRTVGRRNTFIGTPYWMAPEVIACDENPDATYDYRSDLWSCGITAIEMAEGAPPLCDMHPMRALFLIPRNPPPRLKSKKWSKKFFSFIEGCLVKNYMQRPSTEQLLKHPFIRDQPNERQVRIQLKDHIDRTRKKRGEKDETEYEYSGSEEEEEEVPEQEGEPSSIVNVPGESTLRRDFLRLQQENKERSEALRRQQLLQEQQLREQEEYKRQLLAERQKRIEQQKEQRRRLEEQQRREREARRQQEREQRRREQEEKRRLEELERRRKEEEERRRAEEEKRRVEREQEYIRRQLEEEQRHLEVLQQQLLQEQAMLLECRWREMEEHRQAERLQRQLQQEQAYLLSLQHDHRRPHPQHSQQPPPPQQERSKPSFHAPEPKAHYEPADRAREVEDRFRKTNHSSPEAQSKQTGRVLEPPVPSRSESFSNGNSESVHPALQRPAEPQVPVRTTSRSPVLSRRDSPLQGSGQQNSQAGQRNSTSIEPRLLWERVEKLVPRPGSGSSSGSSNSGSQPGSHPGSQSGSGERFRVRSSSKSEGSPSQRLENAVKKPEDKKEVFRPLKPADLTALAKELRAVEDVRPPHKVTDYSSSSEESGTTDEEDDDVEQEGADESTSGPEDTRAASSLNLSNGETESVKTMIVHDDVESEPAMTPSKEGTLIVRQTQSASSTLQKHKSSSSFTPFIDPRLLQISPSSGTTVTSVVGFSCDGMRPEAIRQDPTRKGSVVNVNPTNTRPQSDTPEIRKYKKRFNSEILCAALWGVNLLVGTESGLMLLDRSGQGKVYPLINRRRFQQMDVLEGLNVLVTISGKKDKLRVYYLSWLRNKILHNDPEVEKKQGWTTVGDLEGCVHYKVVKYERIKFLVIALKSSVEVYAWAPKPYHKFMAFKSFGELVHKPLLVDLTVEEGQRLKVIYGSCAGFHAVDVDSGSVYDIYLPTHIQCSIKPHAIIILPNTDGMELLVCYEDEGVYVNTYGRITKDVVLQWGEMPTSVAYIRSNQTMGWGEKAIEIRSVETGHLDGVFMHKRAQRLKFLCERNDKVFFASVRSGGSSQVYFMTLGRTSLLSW
T9 sequence (Q13153 whole entry): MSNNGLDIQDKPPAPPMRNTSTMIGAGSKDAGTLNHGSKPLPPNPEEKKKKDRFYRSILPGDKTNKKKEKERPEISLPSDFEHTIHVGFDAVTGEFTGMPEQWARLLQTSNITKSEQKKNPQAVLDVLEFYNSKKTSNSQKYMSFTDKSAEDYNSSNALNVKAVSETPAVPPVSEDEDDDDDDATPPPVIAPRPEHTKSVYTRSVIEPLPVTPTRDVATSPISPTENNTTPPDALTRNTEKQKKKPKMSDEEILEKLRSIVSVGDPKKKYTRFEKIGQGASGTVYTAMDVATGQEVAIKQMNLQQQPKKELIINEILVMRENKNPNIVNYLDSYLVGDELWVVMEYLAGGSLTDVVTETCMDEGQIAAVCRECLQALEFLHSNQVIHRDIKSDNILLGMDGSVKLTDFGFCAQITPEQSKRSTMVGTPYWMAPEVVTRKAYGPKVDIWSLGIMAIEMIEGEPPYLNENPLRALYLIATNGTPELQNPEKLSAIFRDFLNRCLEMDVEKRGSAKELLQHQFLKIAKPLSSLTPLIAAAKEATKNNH
T6 sequence (O94804 whole entry): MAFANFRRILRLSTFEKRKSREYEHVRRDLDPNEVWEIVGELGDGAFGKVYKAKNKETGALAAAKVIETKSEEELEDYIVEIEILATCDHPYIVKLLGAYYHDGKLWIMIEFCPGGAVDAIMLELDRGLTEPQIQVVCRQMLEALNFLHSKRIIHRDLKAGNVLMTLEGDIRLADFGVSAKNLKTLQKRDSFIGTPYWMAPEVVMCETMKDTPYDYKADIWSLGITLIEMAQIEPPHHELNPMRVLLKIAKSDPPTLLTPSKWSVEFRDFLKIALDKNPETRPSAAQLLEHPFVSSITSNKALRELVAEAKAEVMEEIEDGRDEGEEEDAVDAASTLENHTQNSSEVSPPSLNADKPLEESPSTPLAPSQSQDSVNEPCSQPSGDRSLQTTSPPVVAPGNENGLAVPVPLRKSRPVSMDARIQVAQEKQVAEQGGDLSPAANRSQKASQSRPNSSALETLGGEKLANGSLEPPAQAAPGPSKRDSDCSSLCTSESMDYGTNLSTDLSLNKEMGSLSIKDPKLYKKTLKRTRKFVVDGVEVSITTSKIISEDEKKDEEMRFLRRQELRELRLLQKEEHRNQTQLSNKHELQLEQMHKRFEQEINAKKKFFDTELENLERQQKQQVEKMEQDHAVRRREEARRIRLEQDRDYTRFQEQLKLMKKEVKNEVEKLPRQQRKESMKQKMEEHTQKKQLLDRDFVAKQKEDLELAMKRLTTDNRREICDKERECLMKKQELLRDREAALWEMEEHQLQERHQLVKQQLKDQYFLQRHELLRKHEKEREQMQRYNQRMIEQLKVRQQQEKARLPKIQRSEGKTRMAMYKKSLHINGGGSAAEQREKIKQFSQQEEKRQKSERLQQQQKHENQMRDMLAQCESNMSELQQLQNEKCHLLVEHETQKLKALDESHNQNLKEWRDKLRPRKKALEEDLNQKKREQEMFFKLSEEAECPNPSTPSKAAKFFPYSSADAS
T8 sequence (Q9HC98 whole entry): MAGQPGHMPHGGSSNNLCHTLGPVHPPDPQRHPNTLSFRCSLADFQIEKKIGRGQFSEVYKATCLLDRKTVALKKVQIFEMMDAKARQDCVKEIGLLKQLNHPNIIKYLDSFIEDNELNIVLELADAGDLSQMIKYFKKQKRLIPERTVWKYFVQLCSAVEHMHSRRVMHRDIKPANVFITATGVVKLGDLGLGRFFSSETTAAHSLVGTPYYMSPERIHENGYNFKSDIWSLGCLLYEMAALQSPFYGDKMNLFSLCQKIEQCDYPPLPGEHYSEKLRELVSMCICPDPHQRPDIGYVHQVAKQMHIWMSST

C=CC(=O)N1CCC[C@@H](n2nc(-c3ccc(OCc4cccc(C)n4)c(Cl)c3)c3c(N)ncnc32)C1 [CHMFL-EGFR-26]
remaining binding at 1 µM [1]: 100% | remaining binding at 1 µM (ANKK1): 94% | remaining binding at 1 µM (BRAF): 85% | remaining binding at 1 µM (CDK4-cyclinD3): 100% | remaining binding at 1 µM (JNK2): 59% | remaining binding at 1 µM (LOK): 0.2% | remaining binding at 1 µM (MAP4K4): 46% | remaining binding at 1 µM (NEK6): 100% | remaining binding at 1 µM (PAK1): 59% | remaining binding at 1 µM (PIK3C2B): 100% | remaining binding at 1 µM (PRKCH): 70% | remaining binding at 1 µM (SLK): 8.8% | remaining binding at 1 µM (TESK1): 93%
